Assay results: article PMC7997578, “Design, Synthesis, Dynamic Docking, Biochemical Characterization, and in Vivo Pharmacokinetics Studies of Novel Topoisomerase II Poisons with Promising Antiproliferative Activity” (Journal of Medicinal Chemistry, 2020)

Test: aqueous kinetic solubility
Assay type: physicochemical
Conditions: PBS, pH 7.4, PBS pH 7.4, target 250 µM, 2.5% DMSO, 25°C
Description: 1. In vitro m etabolic stabili ty
In vitro microsomial stability. 10mM DMSO stock solution of test compound was pre-incubated at 37 °C for 15min with mouse liver microsomes added 0.1M Tris-HCl buffer (pH 7.4). The final concentration was 4.6µM. After pre -incubation, the co-factors (NADPH, G6P, G6PDH and MgCl2 pre-dissolved in 0.1M Tris-HCl) were added to the incubation mixture and the incubation was continued at 37 °C for 1h. At each time point (0, 5, 15, 30, 60min), 30µL of incubation mixture was diluted with 200µL cold CH 3CN spiked with 200n M of internal standard, followed by centrifugation at 3500g for 15min. The supernatant was further diluted with H2O (1:1) for analysis. The concentration of test compound was quantified by LC/MS-MS on a Waters ACQUITY UPLC/M S TQD system consisting of a TQD (Triple Quadrupole Detector) Mass Spectrometer equipped with an Electrospray Ionization interface. The analyses were run on an ACQUITY UPLC BEH C18 (50x2.1mmID, particle size 1.7µm) with a VanGuard BEH C18 pre -column (5x2.1mmID, particle size 1.7µm) at 40°C, using 0.1% HCOOH in H 2O (A) and 0.1% HCOOH in CH 3CN (B) as mobile phase. Electrospray ionization (ESI) was app lied in positive mode . The percentage of test compound remaining at each time point relative to t=0 was calculated. The half -lives (t½) were determined by an one-phase decay equation using a non -linear regression of compound concentration versus time.
In vitro Plasma Stability. 10mM DMSO stock solution of test compound was diluted 50 -fold with DMSO-H2O (1:1) and incubated at 37 °C for 2 h with mouse plasma added 5% DMSO (pre-heated at 37 °C for 10 min). The final concentration was 2µM. At each time point (0, 5, 15, 30, 60, 120min), 50 µL of incubation mixture was diluted with 200µL cold CH3CN spiked with 200nM of internal standard, followed by centrifugation at 3500g for 20min. The supernatant was further diluted with H2O (1:1) for analysis. The concentration of test compound was quantified by LC/MS-MS on a Waters ACQUITY UPLC/MS TQD system consisting of a TQD (Triple Quadrupole Detector) Mass Spectrometer equipped with an Electrospray Ionization interface. The analyses were run on an ACQUITY UPLC BEH C18 (50x2.1mmID, particle size 1.7µm) with a VanGuard BEH C18 pre - column (5x2.1mmID, particle size 1.7µm) at 40°C, using 0.1% HCOOH in H2O (A) and 0.1% HCOOH in CH3CN (B) as mobile phase. Electrospray ionization (ESI) was applied in positive mode.
The response factors, calculated on the basis of the internal standard peak area, were plotted over time. When possible, response vs. time profiles were fitted with Prism (GraphPad Software, Inc., USA) to estimate compounds half-life in plasma.
2. Aqueous ki netic solu bili ty
The aqueous kinetic solubility was determined from a 10mM DMSO stock solution of test compound in Phosphate Buffered Saline (PBS) at pH 7.4. The study was performed by incubation of an aliquot of 10mM DMSO stock solution in PBS (pH 7.4) at a target concentration of 250µM resulting in a final concentration of 2.5% DMSO. The incubation was carried out under shaking at 25°C for 24h followed by centrifugation at 21.100g for 30min. The supernatant was analyzed by UPLC/MS for the quantification of dissolved compound by UV at a specific wavelength (215nm).
The analyses were performed on a Waters ACQUITY UPLC/MS SQD system consisting of a SQD (Single Quadrupole Detector) Mass Spectrometer equipped with Electrospray Ionization interface.
The analyses were run on an ACQUITY UPLC BEH C18 column (50x2.1mmID, particle size 1.7µm) with a VanGuard BEH C18 pre-column (5x2.1mmID, particle size 1.7µm), using 10mM NH4OAc in H2O at pH 5 adjusted with AcOH (A) and 10mM NH4OAc in MeCN-H2O (95:5) at pH 5 (B) as […]

O=C(Nc1cccc(OC(F)(F)F)c1)c1c(O)n(-c2ccccc2)c(=S)n(-c2ccccc2)c1=O [3f, 6-Hydroxy-4-oxo-1,3-diphenyl-2-thioxo-N-(3-(trifluoromethoxy)phenyl)-1,2,3,4-tetrahydropyrimidine-5-carboxamide]
solubility kinetic at 24 h: > 200 µM
